# Values of other authors as cited in patent US9687445B2, “Oral film containing opiate enteric-release beads” (LTS Lohmann Therapie-Systeme AG, priority 2012, dated 2017).
compound,measurement,value
C=CCN1CC[C@]23c4c5ccc(O)c4O[C@H]2C(=O)CC[C@@]3(O)[C@H]1C5 [naloxone],pKa,about 7.94
